What was measured:
KRAS G12S = target: T1, KRAS G12S (Homo sapiens, UniProt P01116, G12S); test: HTRF assay, interaction of GST-tagged K-Ras with His-tagged hSOS1 (KRAS G12S); assay type: biochemical; conditions: <500 nM, read-out: Inhibition of KRAS G12S (IC50)
T1 construct: made in house; host or cells: E. coli BL21 (DE3)
Description: (§1) This assay can be also used to assess a selective inhibition or reduction of signaling output of a mutant Ras protein relative to a wildtype, or relative to a different mutant Ras protein. For example, the equilibrium interaction of wildtype KRAS or K-Ras mutant (e.g., wildtype or a mutant thereof) with SOS1 (e.g., hSOS1) can be assessed as a proxy or an indication for the ability of a subject compound to bind and inhibit Ras protein. The HTRF assay detects from (i) a fluorescence resonance energy transfer (FRET) donor (e.g., antiGST-Europium) that is bound to GST-tagged K-Ras mutant to (ii) a FRET acceptor (e.g., anti-6His-XL665) bound to a His-tagged hSOS1.
(§2) The assay buffer can contain ˜5 mM HEPES pH 7.4, ˜150 mM NaCl, ˜1 mM DTT, 0.05% BSA and 0.0025% (v/v) Igepal. A Ras working solution is prepared in an assay buffer containing typically a suitable amount of the protein construct (e.g., GST-tagged K-Ras mutant) and the FRET donor (e.g., antiGST-Eu(K) from Cisbio, France). A SOS1 working solution is prepared in an assay buffer containing suitable amount of the protein construct (e.g., His-hSOS1) and the FRET acceptor (e.g., anti-6His-XL665 from Cisbio, France). A suitable amount of the protein construct will depend on the range of activity or range of IC50 values being detected or under investigation. For detecting an IC50 within a range of 500 nM, the protein constructs of the same range of molarity can be utilized.
(§3) A fixed volume of DMSO with or without test compound is transferred into a 384-well plate. Ras working solution is added to all wells of the test plate. SOS1 working solution is added to all wells except for those that are subsequently filled with inhibitor control solution. Upon incubation for about 10 minutes or longer, the fluorescence is measured with a M1000Pro plate reader (Tecan) using HTRF detection (excitation 337 nm, emission 1: 620 nm, emission 2: 665 nm). Compounds are tested in duplicate at different concentrations (for example, 10 μM, 2.5 μM, 0.63 μM, 0.16 μM, 0.04 μM, 0.01 μM test compound). The ratiometric data (i.e., emission 2 divided by emission 1) is used to calculate IC50 values against Ras using GraphPad Prism (GraphPad software). Signaling output measured in terms of IC50 values can be obtained and a ratio of IC50 against one mutant relative to another mutant can be calculated. For instance, a selective reduction of K-Ras G12S signaling output can be evidenced by a ratio greater than one. In particular, a selective reduction of K-Ras G12S signaling relative to K-Ras WT signaling is evidenced if the ratio of IC50 (against K-Ras WT) to IC50 (against K-Ras G12S) is greater than 1.

KRAS WT = target: T2, KRAS WT (Homo sapiens, UniProt P01116); test: HTRF assay, interaction of GST-tagged K-Ras with His-tagged hSOS1 (KRAS wildtype); assay type: biochemical; conditions: <500 nM, read-out: Inhibition of KRAS WT (IC50)
T2 construct: made in house; host or cells: E. coli BL21 (DE3)
Description: as §1, §2, §3

T1 sequence (P01116 1-188 isoform P01116-2 G12S): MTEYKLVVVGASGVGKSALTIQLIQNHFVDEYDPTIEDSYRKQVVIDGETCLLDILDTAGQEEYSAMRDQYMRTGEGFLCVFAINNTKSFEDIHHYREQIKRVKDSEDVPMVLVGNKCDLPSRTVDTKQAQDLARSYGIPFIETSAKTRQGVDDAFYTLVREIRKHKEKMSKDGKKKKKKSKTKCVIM
T2 sequence (P01116 1-188 isoform P01116-2): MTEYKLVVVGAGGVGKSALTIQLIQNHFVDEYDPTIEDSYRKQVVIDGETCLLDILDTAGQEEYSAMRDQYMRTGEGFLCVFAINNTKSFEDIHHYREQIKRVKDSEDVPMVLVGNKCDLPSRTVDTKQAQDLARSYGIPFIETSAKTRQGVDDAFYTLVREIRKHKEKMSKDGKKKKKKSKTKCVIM

`C[C@@H]1[C@H](N2C[C@H](C)Oc3c(Cl)c(-c4ccc(F)c5sc(N)c(C#N)c45)c(F)c4nc(OC[C@@]56CCCN5C[C@H](F)C6)nc2c34)CCN1C(=O)n1cnc(Cl)n1` (atropisomer, axis not shown; (aS)) [Compound 407, 2-amino-4-((6S,9R)-8-chloro-4-((2R,3R)-1-(3-chloro-1H-1,2,4-triazole-1-carbonyl)-2-methylpyrrolidin-3-yl)-10-fluoro-2-(((2R,7aS)-2-fluorotetrahydro-1H-pyrrolizin-7a (5H)-yl)methoxy)-6-methyl-5,6-dihydro-4H-[1,4]oxazepino[5,6,7-de]quinazolin-9-yl)-7-fluorobenzo[b]thiophene-3-carbonitrile] was tested, and the IC50 (KRAS G12S) was < 500 nM and the IC50 (KRAS WT) was < 500 nM.
In the case of `C[C@H](O)[C@H]1COc2c(Cl)c(-c3ccc(F)c4sc(N)c(C#N)c34)c(F)c3nc(OC[C@@]45CCCN4C[C@H](F)C5)nc(c23)N1C[C@H]1CN(C(=O)n2ccnc2)[C@@H]1C` (single isomer, unassigned) [Compound 402], the IC50 (KRAS G12S) is reported as < 500 nM and the IC50 (KRAS WT) is reported as < 500 nM.
With `CC(C)[C@@H]1[C@H](CN2CCOc3c(Cl)c(-c4ccc(F)c5sc(N)c(C#N)c45)c(F)c4nc(OC[C@@]56CCCN5C[C@H](F)C6)nc2c34)CN1C(=O)n1cnc(F)n1` (single isomer, unassigned) [Compound 408] the IC50 (KRAS G12S) was < 500 nM and the IC50 (KRAS WT) was < 500 nM.
`CC(C)[C@@H]1[C@@H](CN2c3nc(OC[C@@]45CCCN4C[C@H](F)C5)nc4c(F)c(-c5ccc(F)c6sc(N)c(C#N)c56)c(Cl)c(c34)OC[C@@H]2[C@H](C)O)CN1C(=O)n1ccnc1` (single isomer, unassigned) [Compound 410] was tested, and the IC50 (KRAS G12S) was < 500 nM and the IC50 (KRAS WT) was < 500 nM.
For `CC1([C@@H]2[C@H](CN3CCOc4c(Cl)c(-c5ccc(F)c6sc(N)c(C#N)c56)c(F)c5nc(OC[C@@]67CCCN6C[C@H](F)C7)nc3c45)CN2C(=O)n2cnc(F)n2)CC1` (single isomer, unassigned) [Compound 420], the IC50 (KRAS G12S) was < 500 nM and the IC50 (KRAS WT) was < 500 nM.
With `C[C@@H]1[C@H](N2CCOc3c(Cl)c(-c4ccc(F)c5sc(N)c(C#N)c45)c(F)c4nc(OC[C@@]56CCCN5C[C@H](F)C6)nc2c34)CCN1C(=O)n1cnc(F)n1` (single isomer, unassigned) [Compound 426] the IC50 (KRAS G12S) was < 500 nM and the IC50 (KRAS WT) was < 500 nM.
For `C[C@@H]1[C@H](N2c3nc(OC[C@@]45CCCN4C[C@H](F)C5)nc4c(F)c(-c5ccc(F)c6sc(N)c(C#N)c56)c(Cl)c(c34)OC[C@@H]2C)CCN1C(=O)n1ccnc1` (single isomer, unassigned) [Compound 432], the IC50 (KRAS G12S) was < 500 nM and the IC50 (KRAS WT) was < 500 nM.
For `CC(C)(C)[C@@H]1[C@H](CN2CCOc3c(Cl)c(-c4ccc(F)c5sc(N)c(C#N)c45)c(F)c4nc(OC[C@@]56CCCN5C[C@H](F)C6)nc2c34)CN1C(=O)n1cnc(F)n1` (single isomer, unassigned) [Compound 434], the IC50 (KRAS G12S) was < 500 nM and the IC50 (KRAS WT) was < 500 nM.
`C[C@H](O)[C@H]1COc2c(Cl)c(-c3ccc(F)c4sc(N)c(C#N)c34)c(F)c3nc(OC[C@@]45CCCN4C[C@H](F)C5)nc(c23)N1C[C@@H]1CN(C(=O)n2ccnc2)[C@@H]1C` (single isomer, unassigned) [Compound 446] was tested, and the IC50 (KRAS G12S) was < 500 nM and the IC50 (KRAS WT) was < 500 nM.
In the case of `Cc1c(C#N)ncn1C(=O)N1C[C@@H](CN2CCOc3c(Cl)c(-c4ccc(F)c5sc(N)c(C#N)c45)c(F)c4nc(OC[C@@]56CCCN5C[C@H](F)C6)nc2c34)[C@H]1C1(C)CC1` (single isomer, unassigned) [Compound 452], the IC50 (KRAS G12S) is reported as < 500 nM and the IC50 (KRAS WT) is reported as < 500 nM.
`Cc1cn(C(=O)N(C)[C@@H]2C[C@@H]3CCOc4c(Cl)c(-c5ccc(F)c6sc(N)c(C#N)c56)c(F)c5nc(OC[C@@]67CCCN6C[C@H](F)C7)nc(c45)N3C2)cn1` (single isomer, unassigned) [Compound 472] was tested, and the IC50 (KRAS G12S) was < 500 nM and the IC50 (KRAS WT) was < 500 nM.
For `C[C@@H]1[C@H](N2CCOc3c(Cl)c(-c4ccc(F)c5sc(N)c(C#N)c45)c(F)c4nc(OC[C@@]56CCCN5C[C@H](F)C6)nc2c34)CCN1C(=O)n1ccnc1` (single isomer, unassigned) [Compound 474], the IC50 (KRAS G12S) was < 500 nM and the IC50 (KRAS WT) was < 500 nM.
For `Cc1ncn(C(=O)N2C[C@@H](CN3CCOc4c(Cl)c(-c5ccc(F)c6sc(N)c(C#N)c56)c(F)c5nc(OC[C@@]67CCCN6C[C@H](F)C7)nc3c45)[C@H]2C2(C)CC2)c1C` (single isomer, unassigned) [Compound 476], the IC50 (KRAS G12S) was < 500 nM and the IC50 (KRAS WT) was < 500 nM.
`Cc1cn(C(=O)N2CC[C@@H](N3CCOc4c(Cl)c(-c5ccc(F)c6sc(N)c(C#N)c56)c(F)c5nc(OC[C@@]67CCCN6C[C@H](F)C7)nc3c45)[C@H]2C)c(C)n1` [Compound 403, 2-amino-4-(8-chloro-4-((2R,3R)-1-(2,4-dimethyl-1H-imidazole-1-carbonyl)-2-methylpyrrolidin-3-yl)-10-fluoro-2-(((2R,7aS)-2-fluorotetrahydro-1H-pyrrolizin-7a(5H)-yl)methoxy)-5,6-dihydro-4H-[1,4]oxazepino[5,6,7-de]quinazolin-9-yl)-7-fluorobenzo[b]thiophene-3-carbonitrile] was tested, and the IC50 (KRAS G12S) was < 500 nM and the IC50 (KRAS WT) was < 500 nM.
For `C[C@@H]1[C@H](N2c3nc(OC[C@@]45CCCN4C[C@H](F)C5)nc4c(F)c(-c5ccc(F)c6sc(N)c(C#N)c56)c(Cl)c(c34)OC[C@@H]2C)CCN1C(=O)n1cnc(C#N)c1` [Compound 406, 1-((2R,3R)-3-((5S)-9-(2-amino-3-cyano-7-fluorobenzo[b]thiophen-4-yl)-8-chloro-10-fluoro-2-(((2R,7aS)-2-fluorotetrahydro-1H-pyrrolizin-7a(5H)-yl)methoxy)-5-methyl-5,6-dihydro-4H-[1,4]oxazepino [5,6,7-de]quinazolin-4-yl)-2-methylpyrrolidine-1-carbonyl)-1H-imidazole-4-carbonitrile], the IC50 (KRAS G12S) was < 500 nM and the IC50 (KRAS WT) was < 500 nM.
For `Cc1cn(C(=O)N2CC[C@@H](N3CCCc4nc(-c5ccc(F)c6sc(N)c(C#N)c56)c(F)c5nc(OC[C@@]67CCCN6C[C@H](F)C7)nc3c45)[C@H]2C)c(C)n1` [Compound 409, 2-amino-4-(10-((2R,3R)-1-(2,4-dimethyl-1H-imidazole-1-carbonyl)-2-methylpyrrolidin-3-yl)-4-fluoro-2-(((2R,7aS)-2-fluorotetrahydro-1H-pyrrolizin-7a (5H)-yl)methoxy)-7,8,9,10-tetrahydro-1,3,6,10-tetraazacyclohepta[de]naphthalen-5-yl)-7-fluorobenzo[b]thiophene-3-carbonitrile], the IC50 (KRAS G12S) was < 500 nM and the IC50 (KRAS WT) was < 500 nM.
`C=CC(=O)N1CC[C@@H](N2CCCOc3c(Cl)c(-c4ccc(F)c5sc(N)c(C#N)c45)c(F)c4nc(OC[C@@]56CCCN5C[C@H](F)C6)nc2c34)[C@H]1C` [Compound 411, 4-(4-((2R,3R)-1-acryloyl-2-methylpyrrolidin-3-yl)-9-chloro-11-fluoro-2-(((2R,7aS)-2-fluorotetrahydro-1H-pyrrolizin-7a (5H)-yl)methoxy)-4,5,6,7-tetrahydro-[1,5]oxazocino-[4,3,2-de]quinazolin-10-yl)-2-amino-7-fluorobenzo[b]thiophene-3-carbonitrile] was tested, and the IC50 (KRAS G12S) was < 500 nM and the IC50 (KRAS WT) was < 500 nM.
With `C[C@@H]1C(CN2CCOc3c(Cl)c(-c4ccc(F)c5sc(N)c(C#N)c45)c(F)c4nc(OC[C@@]56CCCN5C[C@H](F)C6)nc2c34)CN1C(=O)n1ccnc1` (stereo partly drawn) [Compound 413, 4-(4-(((2R)-1-(1H-imidazole-1-carbonyl)-2-methylazetidin-3-yl)methyl)-8-chloro-10-fluoro-2-(((2R,7aS)-2-fluorotetrahydro-1H-pyrrolizin-7a(5H)-yl)methoxy)-5,6-dihydro-4H-[1,4]oxazepino[5,6,7-de]quinazolin-9-yl)-2-amino-7-fluorobenzo[b]thiophene-3-carbonitrile] the IC50 (KRAS G12S) was < 500 nM and the IC50 (KRAS WT) was < 500 nM.

— patent publication US12606572B2, “Substituted heterocycles and uses thereof” (Kumquat Biosciences Inc., priority 2023, dated 2026)
